Laboratory results published in US20260130933A1, “PHARMACEUTICAL COMPOSITION FOR PREVENTION OR TREATMENT OF NEPHROPATHY AND/OR DIABETES MELLITUS, COMPRISING ENAVOGLIFLOZIN” (DAEWOONG PHARMACEUTICAL CO., LTD., priority 2022, published 2026).

Test: Example 3: phase 3 trial, enavogliflozin 0.3 mg vs dapagliflozin 10 mg once a day for 24 weeks added to metformin and gemigliptin in patients with type 2 diabetes (same endpoints, rescue drug)
Assay type: in vivo, human
Conditions: for Subjects achieving therapeutic glycemic response 1, %: response 1 = HbA1c change >0.5% or HbA1c <7%; for Subjects achieving therapeutic glycemic response 2, %: response 2 = HbA1c change >0.7% or HbA1c <7%; for Subjects achieving therapeutic glycemic response 3, %: response 3 = HbA1c change >1% or HbA1c <7%
Experimental: 1) when Metformin (≥1,000 mg/Day) was Administered at a Constant Dose for at Least 8 Weeks Prior to Pre-Visit (Pre-Screening) • Metformin (≥1,000 mg/day) and gemigliptin (50 mg/day) were co-administered during the 8-week stabilization period. […] 4) when Metformin (≥1,000 mg/Day) and Gemigliptin (50 mg/Day) were Co-Administered at Constant Doses for at Least 8 Weeks Prior to Pre-Visit (Prescreening) • Without a separate stabilization period, Pre-visit (pre-screening) was Visit 1 (screening).
Subjects who met the inclusion/exclusion criteria continued to receive metformin and gemigliptin while receiving a placebo of the clinical trial drug in a single-blind (subject-blinded) state for a 2-week run-in period.
Here, the randomized subjects were stratified according to the administration therapy (co-administration with two or less agents (one or two agents) or three or more agents) of a conventional hypoglycemic agent (before washout of another hypoglycemic agent) within 24 weeks prior to obtaining written informed consent and by an HbA1c value (<8% or ≥8%) at Visit 1 (screening) measured in the central laboratory.
The randomized subjects were administered two tablets of the clinical trial drug corresponding to each administration group once a day, and then visited the institution at weeks 6, 12, 18, and 24 during the 24-week administration period to conduct efficacy and safety assessments. In addition, during the clinical trial period, they were instructed to exercise regularly and control their diet without changing their daily life patterns.
• 1) Change in HbA1c at week 24 after administration of clinical trial drug compared to Visit 2 (randomization)
• 1) Change in HbA1c at each time point of weeks 6, 12, and 18 after administration of clinical trial drug compared to Visit 2 (randomization) • 2) Change in FPG at each time point of weeks 6, 12, 18, and 24 after administration of clinical trial drug compared to Visit 2 (randomization) • 3) Proportion of subjects achieving HbA1c<7% at each time point of weeks 6, 12, 18, and 24 after administration of clinical trial drug • 4) Proportion of subjects achieving HbA1c<6.5% at each time point of weeks 6, 12, 18, and 24 after administration of clinical trial drug • 5) Proportion of subjects achieving therapeutic response (HbA1c change (HbA1c at Visit 2—HbA1c at each evaluation time point)>0.5% or HbA1c<7% at each evaluation time point compared to Visit 2 (randomization)) at each time point of weeks 6, 12, 18, and 24 after administration of clinical trial drug • 6) Proportion of subjects achieving therapeutic response (HbA1c change (HbA1c at Visit 2—HbA1c at each evaluation time point)>0.7% or HbA1c<7% at each evaluation time point compared to Visit 2 (randomization)) at each time point of weeks 6, 12, 18, and 24 after administration of clinical trial drug • 7) Proportion of subjects achieving therapeutic response (HbA1c change (HbA1c at Visit 2—HbA1c at each evaluation time point)>1% or HbA1c<7% at each evaluation time point compared to Visit 2 (randomization)) at each time point of weeks 6, 12, 18, and 24 after administration of clinical trial drug

[1] = week 18, per-protocol set, enavogliflozin 0.3 mg, dapagliflozin 10 mg
[2] = week 24, modified per-protocol set 1, enavogliflozin 0.3 mg, dapagliflozin 10 mg
[3] = week 24, modified per-protocol set 2
[4] = week 24, modified per-protocol set 2, enavogliflozin 0.3 mg, dapagliflozin 10 mg
[5] = week 24, per-protocol set, enavogliflozin 0.3 mg, dapagliflozin 10 mg

SMILES: CCOc1ccc(Cc2cc([C@@H]3O[C@H](CO)[C@@H](O)[C@H](O)[C@H]3O)ccc2Cl)cc1 [Dapagliflozin, reference compound]
- body weight, Median [1]: 62.30 kg
- Subjects achieving therapeutic glycemic response 1, % [1]: 82.93%
- Subjects achieving therapeutic glycemic response 2, % [1]: 76.42%
- Subjects achieving therapeutic glycemic response 3, % [1]: 70.73%
- FPG change from baseline, LS mean (SE) (week 24): −23.72(1.78) mg/dL
- HDL-C change from baseline, LS mean (SE) (week 24): 4.40(0.69) mg/dL
- HOMA-IR change from baseline, LS mean (SE) (week 24): −0.93(0.11)
- HOMA-β change from baseline, LS mean (SE) (week 24): 5.78(4.72)
- HbA1c change from baseline, LS mean (SE) (week 24): −0.86(0.05) % p
- HbA1c change from baseline, Mean (SD) (week 24): −0.89(0.65) % p
- LDL-C change from baseline, LS mean (SE) (week 24): 3.12(1.85) mg/dL
- UACR change from baseline, LS mean (SE) (week 24): −16.13 (3.84) g/kg
- UGCR change from baseline, LS mean (SE) (week 24): 43.51(2.26) mg/mg
- adiponectin change from baseline, LS mean (SE) (week 24): 0.92(0.35) μg/mL
- body weight change from baseline, LS mean (SE) (week 24): −3.01(0.22) kg
- diastolic blood pressure change from baseline, LS mean (SE) (week 24): −1.89(0.70) mmHg
- fasting C-peptide change from baseline, LS mean (SE) (week 24): −0.08(0.02) ng/ml
- leptin change from baseline, LS mean (SE) (week 24): −0.57(0.51) ng/mL
- systolic blood pressure change from baseline, LS mean (SE) (week 24): −4.27(0.93) mmHg
- total cholesterol change from baseline, LS mean (SE) (week 24): 5.57(2.03) mg/dL
- triglyceride change from baseline, LS mean (SE) (week 24): −8.78(3.94) mg/dL
- Proportion of subjects who received a rescue drug (week 24, FAS): 0.74%
- Change from baseline in HDL-C, ANCOVA LS mean [2]: 4.40 mg/dL
- Change from baseline in HDL-C, Mean [2]: 4.44 mg/dL
- Change from baseline in HDL-C, Median [2]: 4.00 mg/dL
- Change from baseline in LDL-C, ANCOVA LS mean [2]: 3.12 mg/dL
- Change from baseline in LDL-C, Mean [2]: 2.72 mg/dL
- Change from baseline in LDL-C, Median [2]: 1.50 mg/dL
- Change from baseline in total cholesterol, ANCOVA LS mean [2]: 5.57 mg/dL
- Change from baseline in total cholesterol, Mean [2]: 4.69 mg/dL
- Change from baseline in total cholesterol, Median [2]: 3.00 mg/dL
- Change from baseline in triglycerides, ANCOVA LS mean [2]: -8.78 mg/dL
- Change from baseline in triglycerides, Mean [2]: -13.81 mg/dL
- Change from baseline in triglycerides, Median [2]: -6.00 mg/dL
- Fasting HDL-C, Mean [2]: 51.87 mg/dL
- Fasting HDL-C, Median [2]: 50.50 mg/dL
- Fasting LDL-C, Mean [2]: 80.13 mg/dL
- Fasting LDL-C, Median [2]: 71.50 mg/dL
- Fasting total cholesterol, Mean [2]: 148.49 mg/dL
- Fasting triglycerides, Mean [2]: 118.68 mg/dL
- Fasting triglycerides, Median [2]: 104.00 mg/dL
- fasting Total cholesterol, Median [2]: 145.00 mg/dL
- Change from baseline in diastolic blood pressure, ANCOVA LS mean [3]: −1.89 mmHg
- Change from baseline in diastolic blood pressure, Mean [3]: −1.60 mmHg
- Change from baseline in diastolic blood pressure, Median [3]: −2.00 mmHg
- Diastolic blood pressure, Mean [3]: 72.27 mmHg
- Diastolic blood pressure, Median [3]: 73.00 mmHg
- Change from baseline in systolic blood pressure, ANCOVA LS mean [4]: −4.27 mmHg
- Change from baseline in systolic blood pressure, Mean [4]: −3.74 mmHg
- Change from baseline in systolic blood pressure, Median [4]: −4.00 mmHg
- Systolic blood pressure, Mean [4]: 120.20 mmHg
- Systolic blood pressure, Median [4]: 119.00 mmHg
- Adiponectin, Mean (week 24, per-protocol set): 7.18 µg/mL
- Adiponectin, Median (week 24, per-protocol set): 6.39 µg/mL
- Change from baseline in HOMA-IR, ANCOVA LS mean (week 24, per-protocol set): −0.93
- Change from baseline in HOMA-IR, Mean (week 24, per-protocol set): −0.88
- Change from baseline in HOMA-IR, Median (week 24, per-protocol set): −0.70
- Change from baseline in HOMA-β, ANCOVA LS mean (week 24, per-protocol set): 5.78
- Change from baseline in HOMA-β, Mean (week 24, per-protocol set): 7.95
- Change from baseline in HOMA-β, Median (week 24, per-protocol set): 7.20
- Change from baseline in UACR, ANCOVA LS mean (week 24, per-protocol set): -16.13 g/kg
- Change from baseline in UACR, Mean (week 24, per-protocol set): -11.12 g/kg
- Change from baseline in UACR, Median (week 24, per-protocol set): -0.70 g/kg
- Change from baseline in UGCR, ANCOVA LS mean (week 24, per-protocol set): 43.51 mg/mg
- Change from baseline in UGCR, Mean (week 24, per-protocol set): 42.31 mg/mg
- Change from baseline in UGCR, Median (week 24, per-protocol set): 42.35 mg/mg
- Change from baseline in adiponectin, ANCOVA LS mean (week 24, per-protocol set): 0.92 µg/mL
- Change from baseline in adiponectin, Mean (week 24, per-protocol set): 0.84 µg/mL
- Change from baseline in adiponectin, Median (week 24, per-protocol set): 0.78 µg/mL
- Change from baseline in leptin, ANCOVA LS mean (week 24, per-protocol set): -0.57 ng/mL
- Change from baseline in leptin, Mean (week 24, per-protocol set): -0.74 ng/mL
- Change from baseline in leptin, Median (week 24, per-protocol set): -0.46 ng/mL
- HOMA-IR (insulin resistance), Mean (week 24, per-protocol set): 1.97
- HOMA-IR (insulin resistance), Median (week 24, per-protocol set): 1.55
- HOMA-β (beta-cell function), Mean (week 24, per-protocol set): 48.41
- HOMA-β (beta-cell function), Median (week 24, per-protocol set): 36.70
- Leptin, Mean (week 24, per-protocol set): 10.10 ng/mL
- Leptin, Median (week 24, per-protocol set): 8.14 ng/mL
- UACR, Mean (week 24, per-protocol set): 23.58 g/kg
- UACR, Median (week 24, per-protocol set): 10.20 g/kg
- UGCR, Mean (week 24, per-protocol set): 43.84 mg/mg
- UGCR, Median (week 24, per-protocol set): 42.85 mg/mg
- Body weight, Mean [5]: 64.38 kg
- Change from baseline in FPG, ANCOVA LS mean [5]: -23.72 mg/dL
- Change from baseline in FPG, Mean [5]: -23.70 mg/dL
- Change from baseline in FPG, Median [5]: -20.00 mg/dL
- Change from baseline in body weight, ANCOVA LS mean [5]: -3.01 kg
- Change from baseline in body weight, Mean [5]: -2.83 kg
- Change from baseline in body weight, Median [5]: -2.60 kg
- Change from baseline in fasting C-peptide, ANCOVA LS mean [5]: -0.08 ng/mL
- Change from baseline in fasting C-peptide, Mean [5]: -0.07 ng/mL
- Change from baseline in fasting C-peptide, Median [5]: -0.10 ng/mL
- FPG, Mean [5]: 116.82 mg/dL
- FPG, Median [5]: 114.00 mg/dL
- Fasting C-peptide, Mean [5]: 0.62 ng/mL
- Fasting C-peptide, Median [5]: 0.56 ng/mL
- Subjects achieving HbA1c target of <6.5%, (%) [5]: 17.07%
- Subjects achieving HbA1c target of <7%, % [5]: 62.60%
- body weight, Median [5]: 62.90 kg
- Subjects achieving therapeutic glycemic response 1, % [5]: 85.37%
- Subjects achieving therapeutic glycemic response 2, % [5]: 82.11%
- Subjects achieving therapeutic glycemic response 3, % [5]: 74.80%
